Experimental data taken from patent publication US20180256673A1, “METHODS FOR TREATING FUNGAL INFECTIONS” (priority 2015, published 2018).
Values after ≈ are worked out from the molar mass of the structure shown. Values joined by “and” are separate entries in the source; they are usually repeats but may differ in a detail not shown here. Identical values can stand only once. Like-named read-outs stand apart in the source and are kept apart here. Starred links: 1 amine or outer side, 2 acyl side, 3 side chain; linkers in the order of their positions; H or OH if unused. Positions of bridges follow the written chain, without caps; N, C: chain ends. Non-standard residues stand in square brackets, D forms with d. Residues, ends and D or L forms follow the SMILES beside them. *: point of attachment. pTerphenylCO(4''-OnC5H11) = CCCCCOc1ccc(-c2ccc(-c3ccc(C(=O)*)cc3)cc2)cc1; Orn(4R-OH,5R-OH) = O=C([C@H](C[C@@H](O)[C@@H](O)N[*:3])N[*:1])[*:2]; hTyr(3S-OH,4S-OH) = N[C@H](C(=O)O)[C@H](O)[C@@H](O)c1ccc(O)cc1; Pro(3S-OH,4S-Me) = C[C@H]1CN[C@H](C(=O)O)[C@H]1O; Hyp = O=C(O)[C@@H]1C[C@@H](O)CN1

Experiments:
Candida tropicalis = test: Broth microdilution of invasive fungal isolates (CLSI M27-A3/M38-A2); format: cell-based
[1] = test system: C. glabrata ATCC 90030, ATCC 2001; test: microbe, parasite or virus in culture; format: cell-based, Candida glabrata; conditions: for MIC fold-shift: WT to P20; for MIC: Nakaseomyces glabratus
C. albicans NRRL Y-477 [2] = format: cell-based, Candida albicans
Protocol: (§1) Spontaneous mutant selection. […] Three individual colonies from each strain were used to start cultures in RPMI. […] One milliliter aliquots were spread onto SDA plates containing drug with sterile glass beads. Starting viable count was enumerated by triplicate plating of serial dilutions of the starting inoculum. […] Glycerol stocks of putative mutant colonies were stored at −80° C. […] Spontaneous mutation frequencies were calculated by dividing the number of resistant colonies on a given plate by the starting inoculum plated. A subset of mutants (weighted heavily towards those selected with CMP1) were then evaluated by MIC and sequencing of FKS gene hot spot regions.

C. krusei ATCC 6258 = format: cell-based, Candida krusei
Protocol: as §1

Candida krusei = test: Broth microdilution of invasive fungal isolates (CLSI M27-A3/M38-A2); format: cell-based
[3] = test system: C. parapsilosis vaginal isolates; test: Susceptibility testing of VVC clinical isolates at pH 7 and 4 (CLSI M27-A3); format: cell-based, Candida parapsilosis
Candida dubliniensis = test: Broth microdilution of invasive fungal isolates (CLSI M27-A3/M38-A2); format: cell-based
C. albicans NRRL Y-477 [4] = test: Broth microdilution MIC (CLSI), Examples 3 and 4; conditions: Candida albicans
Protocol: Antifungal susceptibility testing. […] MIC assays were performed in triplicate.

[5] = test system: C. glabrata vaginal isolates; test: Susceptibility testing of VVC clinical isolates at pH 7 and 4 (CLSI M27-A3); format: cell-based, Candida glabrata; conditions: Nakaseomyces glabratus
Candida orthopsilosis = test: Broth microdilution of invasive fungal isolates (CLSI M27-A3/M38-A2); format: cell-based
[6] = test system: C. tropicalis vaginal isolates; test: Susceptibility testing of VVC clinical isolates at pH 7 and 4 (CLSI M27-A3); format: cell-based; conditions: Candida tropicalis
[7] = SDA, minimum concentration to cleanly inhibit growth

With CCCCCOc1ccc(-c2ccc(-c3ccc(C(=O)N[C@H]4C[C@@H](O)[C@@H](O)NC(=O)[C@@H]5[C@@H](O)[C@@H](C)CN5C(=O)[C@H]([C@@H](C)O)NC(=O)[C@H]([C@H](O)[C@@H](O)c5ccc(O)cc5)NC(=O)[C@@H]5C[C@@H](O)CN5C(=O)[C@H]([C@@H](C)O)NC4=O)cc3)cc2)cc1 [ANID, anidulafungin] ({pTerphenylCO(4''-OnC5H11)}-[Orn(4R-OH,5R-OH)]T[Hyp][hTyr(3S-OH,4S-OH)]T[Pro(3S-OH,4S-Me)]; lactam 1-C) the “Cumulative % of isolates inhibited at MIC 0.015 μg/mL” value (Candida tropicalis; 51 isolates) was “(62.7) %”, the “Cumulative % of isolates inhibited at MIC 0.03 μg/mL” value (Candida tropicalis; 51 isolates) was “(98.0) %” and the “Cumulative % of isolates inhibited at MIC 0.06 μg/mL” value (Candida tropicalis; 51 isolates) was “(100.0) %”. The “Cumulative % of isolates inhibited at MIC ≤0.008 μg/mL” value (Candida tropicalis; 51 isolates) was “(9.8) %”, the “Number of isolates inhibited at MIC 0.015 μg/mL” value (Candida tropicalis; 51 isolates) was 27 and the “Number of isolates inhibited at MIC 0.03 μg/mL” value (Candida tropicalis; 51 isolates) was 18. The “Number of isolates inhibited at MIC 0.06 μg/mL” value (Candida tropicalis; 51 isolates) was 1, the “Number of isolates inhibited at MIC ≤0.008 μg/mL” value (Candida tropicalis; 51 isolates) was 5 and the MIC50 (Candida tropicalis; Candida tropicalis) was 0.015 µg/mL (≈ 0.0132 µM). The MIC90 (Candida tropicalis; Candida tropicalis) was 0.03 µg/mL (≈ 0.0263 µM), the MIC fold-shift ([1]; ATCC 2001) was 64 and the MIC fold-shift ([1]; ATCC 90030) was 64. For the same molecule, the MIC ([1]; 48 h, ATCC 90030 P20-1, selecting drug ANID, Fks2 HS1 D666I, 48 h read) was 4 µg/mL (≈ 3.51 µM), the MIC ([1]; 48 h, ATCC 90030 P20-1, selecting drug CAS, Fks2 HS1 F659I D666Y, 48 h read) was 8 µg/mL (≈ 7.02 µM) and the MIC ([1]; ATCC 2001 P20-2, selecting drug ANID, Fks1 HS1 D632Y) was 4 µg/mL (≈ 3.51 µM). The MIC ([1]; ATCC 2001 P20-2, selecting drug CAS) was 2 µg/mL (≈ 1.75 µM), the MIC ([1]; ATCC 2001 P20-2, selecting drug CMP1) was 1 µg/mL (≈ 0.877 µM) and the MIC ([1]; ATCC 90030 P20-2, selecting drug CMP1) was 1 µg/mL (≈ 0.877 µM). It also gave an MIC ([1]; read-out: MIC P20, ATCC 2001, total population after 20 passages with the selecting drug, MIC of selecting drug) of 4 µg/mL, an MIC ([1]; read-out: MIC P20, ATCC 90030, total population after 20 passages with the selecting drug, MIC of selecting drug) of 4 µg/mL and a Median mutation frequency (C. albicans NRRL Y-477 [2]) of 1.59E−07. The Plate concentration (C. albicans NRRL Y-477 [2]; [7]) was 0.015 µg/mL, the “Freq. (replicate mutation frequency)” value (C. albicans NRRL Y-477 [2]; replicate plates 1-3) was 1.88E−07 and 1.59E−07 and 1.56E−07 and the Median mutation frequency (C. krusei ATCC 6258) was under 3.38E−09. The Plate concentration (C. krusei ATCC 6258; [7]) was 0.25 µg/mL, the “Freq. (replicate mutation frequency)” value (C. krusei ATCC 6258; replicate plates 1-3) was <3.38E−09 (2×) and <3.51E−09 and the “Cumulative % of isolates inhibited at MIC 0.015 μg/mL” value (Candida krusei; 16 isolates) was 6.2%. The “Cumulative % of isolates inhibited at MIC 0.03 μg/mL” value (Candida krusei; 16 isolates) was “(43.8) %”, the “Cumulative % of isolates inhibited at MIC 0.06 μg/mL” value (Candida krusei; 16 isolates) was “(100.0) %” and the “Number of isolates inhibited at MIC 0.015 μg/mL” value (Candida krusei; 16 isolates) was 1. For the same molecule, the “Number of isolates inhibited at MIC 0.03 μg/mL” value (Candida krusei; 16 isolates) was 6, the “Number of isolates inhibited at MIC 0.06 μg/mL” value (Candida krusei; 16 isolates) was 9 and the MIC50 (Candida krusei; Pichia kudriavzevii) was 0.06 µg/mL (≈ 0.0526 µM). It also gave an MIC90 (Candida krusei; Pichia kudriavzevii) of 0.06 µg/mL (≈ 0.0526 µM), an MIC90 ([3]; 24 h, pH 4) of 1 µg/mL (≈ 0.877 µM) and an MIC90 ([3]; 24 h, pH 7) of 2 µg/mL (≈ 1.75 µM). For the same molecule, the MIC90 ([3]; 48 h, pH 4) was 2 µg/mL (≈ 1.75 µM), the MIC90 ([3]; 48 h, pH 7) was 4 µg/mL (≈ 3.51 µM) and the “Cumulative % of isolates inhibited at MIC 0.015 μg/mL” value (Candida dubliniensis; 11 isolates) was “(9.1) %”. For the same molecule, the “Cumulative % of isolates inhibited at MIC 0.03 μg/mL” value (Candida dubliniensis; 11 isolates) was “(36.4) %”, the “Cumulative % of isolates inhibited at MIC 0.06 μg/mL” value (Candida dubliniensis; 11 isolates) was “(100.0) %” and the “Number of isolates inhibited at MIC 0.015 μg/mL” value (Candida dubliniensis; 11 isolates) was 1. For the same molecule, the “Number of isolates inhibited at MIC 0.03 μg/mL” value (Candida dubliniensis; 11 isolates) was 3, the “Number of isolates inhibited at MIC 0.06 μg/mL” value (Candida dubliniensis; 11 isolates) was 7 and the MIC50 (Candida dubliniensis; Candida dubliniensis) was 0.06 µg/mL (≈ 0.0526 µM). It also gave an MIC90 (Candida dubliniensis; Candida dubliniensis) of 0.06 µg/mL (≈ 0.0526 µM), an MIC (C. albicans NRRL Y-477 [4]; NRRLY477) of 0.25 µg/mL (≈ 0.219 µM) and an MIC (C. albicans NRRL Y-477 [4]; NRRLY477, 24 h, read-out: Broth MIC) of 0.015 µg/mL (≈ 0.0132 µM). It also gave an MIC90 ([5]; 24 h, pH 4) of 0.125 µg/mL (≈ 0.11 µM), an MIC90 ([5]; 24 h, pH 7) of 0.03 µg/mL (≈ 0.0263 µM) and an MIC90 ([5]; 48 h, pH 4) of 0.25 µg/mL (≈ 0.219 µM). The MIC90 ([5]; 48 h, pH 7) was 0.06 µg/mL (≈ 0.0526 µM), the “Cumulative % of isolates inhibited at MIC 0.25 μg/mL” value (Candida orthopsilosis; 10 isolates) was “(30.0) %” and the “Cumulative % of isolates inhibited at MIC 0.5 μg/mL” value (Candida orthopsilosis; 10 isolates) was “(50.0) %”. The “Cumulative % of isolates inhibited at MIC 1 μg/mL” value (Candida orthopsilosis; 10 isolates) was “(90.0) %”, the “Cumulative % of isolates inhibited at MIC 2 μg/mL” value (Candida orthopsilosis; 10 isolates) was “(100.0) %” and the “Number of isolates inhibited at MIC 0.25 μg/mL” value (Candida orthopsilosis; 10 isolates) was 3. The “Number of isolates inhibited at MIC 0.5 μg/mL” value (Candida orthopsilosis; 10 isolates) was 2, the “Number of isolates inhibited at MIC 1 μg/mL” value (Candida orthopsilosis; 10 isolates) was 4 and the “Number of isolates inhibited at MIC 2 μg/mL” value (Candida orthopsilosis; 10 isolates) was 1. It also gave an MIC50 (Candida orthopsilosis; Lodderomyces orthopsilosis) of 0.5 µg/mL (≈ 0.438 µM), an MIC90 (Candida orthopsilosis; Lodderomyces orthopsilosis) of 1 µg/mL (≈ 0.877 µM) and an MIC90 ([6]; 24 h, pH 4) of 0.125 µg/mL (≈ 0.11 µM). For the same molecule, the MIC90 ([6]; 24 h, pH 7) was 0.03 µg/mL (≈ 0.0263 µM), the MIC90 ([6]; 48 h, pH 4) was 0.5 µg/mL (≈ 0.438 µM) and the MIC90 ([6]; 48 h, pH 7) was 0.06 µg/mL (≈ 0.0526 µM).
